Experiments:
[1] = system: Puccinia recondita f. Sp. Tritici; experiment: Puccinia recondita f. sp. tritici / wheat / leaf disc curative (brown rust); assay type: in vivo; conditions: foliar, 200 ppm in the applied formulation, wheat leaf segments, curative (applied 1 day after inoculation), assessed 6 to 8 days after application, read-out: disease control compared to untreated control leaf disks
How it was run: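 Curative treatment: formulated compound in water was applied 1 day post-inoculation to spore-inoculated wheat cv. Kanzler segments held on agar. Segments stayed at 19° C and 75% relative humidity (12 h photoperiod after application), and disease control relative to untreated checks was assessed 6 to 8 days later.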

[2] = system: Glomerella lacenarium (Colletotrichum lacenarium); experiment: Glomerella lacenarium (Colletotrichum lacenarium) liquid culture / cucumber / preventative (anthracnose); assay type: cell-based; conditions: 20 ppm in the applied formulation, liquid culture in PDB, 24° C., 3 to 4 days after application, read-out: disease control (inhibition of growth, photometric) compared to untreated control
How it was run: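 At 20 ppm in the applied formulation, compounds were mixed with fungal spores in potato dextrose broth and held at 24° C. After 3–4 days, photometric growth measurement gave percent antifungal activity relative to untreated control.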

Phakopsora pachyrhizi = Phakopsora pachyrhizi / soybean / leaf disc preventative (Asian soybean rust); assay type: in vivo; conditions: foliar, 200 ppm in the applied formulation, soybean leaf disks, assessed 12 to 14 days after application, read-out: disease control compared to untreated control leaf disks
How it was run: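 Soybean leaf discs on water agar were sprayed with formulated compound diluted in water, then inoculated one day later with spore suspension on the lower leaf surface. Held 24-36 h dark at 20° C., 75% RH, then 12 h light/day; percent disease control versus untreated scored 12 to 14 days after application.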

[3] = system: Puccinia recondita f. Sp. Tritici; experiment: Puccinia recondita f. sp. tritici / wheat / leaf disc preventative (brown rust); assay type: in vivo; conditions: foliar, 200 ppm in the applied formulation, wheat leaf segments, preventative, assessed 7 to 9 days after application, read-out: disease control compared to untreated control leaf disks
How it was run: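 Wheat cv. Kanzler leaf segments on agar sprayed with formulated compound in water, inoculated with rust spores 1 day later. Incubated at 19° C, 75% rh, 12 h light/12 h dark; percent disease control versus untreated scored 7 to 9 days after application; tested at 200 ppm.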

CC(=O)C(=O)N(Cc1ccc(-c2noc(C(F)(F)F)n2)cc1)C1CC1 [Compound 1.91, N-cyclopropyl-2-oxo-N-[[4-[5-(trifluoromethyl)-1,2,4-oxadiazol-3-yl]phenyl]methyl]propanamide]
≥ 80%: pest or weed control at 200 ppm [1] | inhibition at 20 ppm [2] | pest or weed control at 200 ppm (Phakopsora pachyrhizi) | pest or weed control at 200 ppm [3]

O=C(C(=O)N(Cc1ccc(-c2noc(C(F)(F)F)n2)cc1)C1CC1)C1CC1 [Compound 1.92, N,2-dicyclopropyl-2-oxo-N-[[4-[5-(trifluoromethyl)-1,2,4-oxadiazol-3-yl]phenyl]methyl]acetamide]
≥ 80%: pest or weed control at 200 ppm [1] | inhibition at 20 ppm [2] | pest or weed control at 200 ppm (Phakopsora pachyrhizi) | pest or weed control at 200 ppm [3]

CCN(Cc1ccc(-c2noc(C(F)(F)F)n2)cc1)C(=O)C(=O)C1CC1 [Compound 1.93, 2-cyclopropyl-N-ethyl-2-oxo-N-[[4-[5-(trifluoromethyl)-1,2,4-oxadiazol-3-yl]phenyl]methyl]acetamide]
≥ 80%: pest or weed control at 200 ppm [1] | inhibition at 20 ppm [2] | pest or weed control at 200 ppm (Phakopsora pachyrhizi) | pest or weed control at 200 ppm [3]

CN(Cc1ccc(-c2noc(C(F)(F)F)n2)cc1)C(=O)C(=O)C1CC1 [Compound 1.94, 2-cyclopropyl-N-methyl-2-oxo-N-[[4-[5-(trifluoromethyl)-1,2,4-oxadiazol-3-yl]phenyl]methyl]acetamide]
≥ 80%: pest or weed control at 200 ppm [1] | inhibition at 20 ppm [2] | pest or weed control at 200 ppm (Phakopsora pachyrhizi) | pest or weed control at 200 ppm [3]

CC(C)C(=O)C(=O)N(C)Cc1ccc(-c2noc(C(F)(F)F)n2)cc1 [Compound 1.95, N,3-dimethyl-2-oxo-N-[[4-[5-(trifluoromethyl)-1,2,4-oxadiazol-3-yl]phenyl]methyl]butanamide]
≥ 80%: pest or weed control at 200 ppm [1] | inhibition at 20 ppm [2] | pest or weed control at 200 ppm (Phakopsora pachyrhizi) | pest or weed control at 200 ppm [3]

CCN(Cc1ccc(-c2noc(C(F)(F)F)n2)cc1)C(=O)C(=O)C(C)C [Compound 1.96, N-ethyl-3-methyl-2-oxo-N-[[4-[5-(trifluoromethyl)-1,2,4-oxadiazol-3-yl]phenyl]methyl]butanamide]
≥ 80%: pest or weed control at 200 ppm [1] | inhibition at 20 ppm [2] | pest or weed control at 200 ppm (Phakopsora pachyrhizi) | pest or weed control at 200 ppm [3]

CC(C)C(=O)C(=O)N(Cc1ccc(-c2noc(C(F)(F)F)n2)cc1)C1CC1 [Compound 1.97, N-cyclopropyl-3-methyl-2-oxo-N-[[4-[5-(trifluoromethyl)-1,2,4-oxadiazol-3-yl]phenyl]methyl]butanamide]
≥ 80%: pest or weed control at 200 ppm [1] | inhibition at 20 ppm [2] | pest or weed control at 200 ppm (Phakopsora pachyrhizi) | pest or weed control at 200 ppm [3]

CCC(=O)C(=O)N(C)Cc1ccc(-c2noc(C(F)(F)F)n2)cc1 [Compound 1.98, N-methyl-2-oxo-N-[[4-[5-(trifluoromethyl)-1,2,4-oxadiazol-3-yl]phenyl]methyl]butanamide]
≥ 80%: pest or weed control at 200 ppm [1] | inhibition at 20 ppm [2] | pest or weed control at 200 ppm (Phakopsora pachyrhizi) | pest or weed control at 200 ppm [3]

CCC(=O)C(=O)N(CC)Cc1ccc(-c2noc(C(F)(F)F)n2)cc1 [Compound 1.99, N-ethyl-2-oxo-N-[[4-[5-(trifluoromethyl)-1,2,4-oxadiazol-3-yl]phenyl]methyl]butanamide]
≥ 80%: pest or weed control at 200 ppm [1] | inhibition at 20 ppm [2] | pest or weed control at 200 ppm (Phakopsora pachyrhizi) | pest or weed control at 200 ppm [3]

CCC(=O)C(=O)N(Cc1ccc(-c2noc(C(F)(F)F)n2)cc1)C1CC1 [Compound 1.100, N-cyclopropyl-2-oxo-N-[[4-[5-(trifluoromethyl)-1,2,4-oxadiazol-3-yl]phenyl]methyl]butanamide]
≥ 80%: pest or weed control at 200 ppm [1] | inhibition at 20 ppm [2] | pest or weed control at 200 ppm (Phakopsora pachyrhizi) | pest or weed control at 200 ppm [3]

CO/N=C(\C)C(=O)N(Cc1ccc(-c2noc(C(F)(F)F)n2)cc1)OC [Compound 2.10, (2E)-N-methoxy-2-methoxyimino-N-[[4-[5-(trifluoromethyl)-1,2,4-oxadiazol-3-yl]phenyl]methyl] propanamide]
≥ 80%: pest or weed control at 200 ppm [1] | inhibition at 20 ppm [2] | pest or weed control at 200 ppm (Phakopsora pachyrhizi) | pest or weed control at 200 ppm [3]

CO/N=C(/C)C(=O)N(Cc1ccc(-c2noc(C(F)(F)F)n2)cc1)OC [Compound 2.11, (2Z)-N-methoxy-2-methoxyimino-N-[[4-[5-(trifluoromethyl)-1,2,4-oxadiazol-3-yl]phenyl]methyl] propanamide]
≥ 80%: pest or weed control at 200 ppm [1] | inhibition at 20 ppm [2] | pest or weed control at 200 ppm (Phakopsora pachyrhizi) | pest or weed control at 200 ppm [3]

CCON=C(C)C(=O)N(Cc1ccc(-c2noc(C(F)(F)F)n2)cc1)OC [Compound 2.12, 2-ethoxyimino-N-methoxy-N-[[4-[5-(trifluoromethyl)-1,2,4-oxadiazol-3-yl]phenyl]methyl] propanamide]
≥ 80%: pest or weed control at 200 ppm [1] | inhibition at 20 ppm [2] | pest or weed control at 200 ppm (Phakopsora pachyrhizi) | pest or weed control at 200 ppm [3]

C=CCN(Cc1ccc(-c2noc(C(F)(F)F)n2)cc1)C(=O)C(=O)N(C)C [Compound 4.25, N′-allyl-N,N-dimethyl-N′-[[4-[5-(trifluoromethyl)-1,2,4-oxadiazol-3-yl]phenyl]methyl] oxamide]
≥ 80%: pest or weed control at 200 ppm [1] | inhibition at 20 ppm [2] | pest or weed control at 200 ppm (Phakopsora pachyrhizi) | pest or weed control at 200 ppm [3]

C=CCN(Cc1ccc(-c2noc(C(F)(F)F)n2)cc1)C(=O)C(N)=O [Compound 4.26, N′-allyl-N′-[[4-[5-(trifluoromethyl)-1,2,4-oxadiazol-3-yl]phenyl]methyl] oxamide]
≥ 80%: pest or weed control at 200 ppm [1] | inhibition at 20 ppm [2] | pest or weed control at 200 ppm (Phakopsora pachyrhizi) | pest or weed control at 200 ppm [3]

CCN(Cc1ccc(-c2noc(C(F)(F)F)n2)cc1)C(=O)C(=O)N(C)C [Compound 4.27, N′-ethyl-N,N-dimethyl-N′-[[4-[5-(trifluoromethyl)-1,2,4-oxadiazol-3-yl]phenyl]methyl] oxamide]
≥ 80%: pest or weed control at 200 ppm [1] | inhibition at 20 ppm [2] | pest or weed control at 200 ppm (Phakopsora pachyrhizi) | pest or weed control at 200 ppm [3]

CCN(Cc1ccc(-c2noc(C(F)(F)F)n2)cc1)C(=O)C(N)=O [Compound 4.28, N′-ethyl-N′-[[4-[5-(trifluoromethyl)-1,2,4-oxadiazol-3-yl]phenyl]methyl] oxamide]
≥ 80%: pest or weed control at 200 ppm [1] | inhibition at 20 ppm [2] | pest or weed control at 200 ppm (Phakopsora pachyrhizi) | pest or weed control at 200 ppm [3]

CN(C)C(=O)C(=O)N(C)Cc1ccc(-c2noc(C(F)(F)F)n2)cc1 [Compound 4.29, N,N,N′-trimethyl-N'-[[4-[5-(trifluoromethyl)-1,2,4-oxadiazol-3-yl]phenyl]methyl] oxamide]
≥ 80%: pest or weed control at 200 ppm [1] | inhibition at 20 ppm [2] | pest or weed control at 200 ppm (Phakopsora pachyrhizi) | pest or weed control at 200 ppm [3]

CON(Cc1ccc(-c2noc(C(F)(F)F)n2)cc1)C(=O)C(=O)N(C)C [Compound 4.39, N′-methoxy-N,N-dimethyl-N′-[[4-[5-(trifluoromethyl)-1,2,4-oxadiazol-3-yl]phenyl]methyl] oxamide]
≥ 80%: pest or weed control at 200 ppm [1] | inhibition at 20 ppm [2] | pest or weed control at 200 ppm (Phakopsora pachyrhizi) | pest or weed control at 200 ppm [3]

CN(C(=O)C(=O)NCc1ccc(-c2noc(C(F)(F)F)n2)cc1)C1CCOC1 (centres unmarked) [Compound 4.41, N′-methyl-N′-tetrahydrofuran-3-yl-N-[[4-[5-(trifluoromethyl)-1,2,4-oxadiazol-3-yl]phenyl]methyl] oxamide]
≥ 80%: pest or weed control at 200 ppm [1] | inhibition at 20 ppm [2] | pest or weed control at 200 ppm (Phakopsora pachyrhizi) | pest or weed control at 200 ppm [3]

CNC(=O)C(=O)NCc1ccc(-c2noc(C(F)(F)F)n2)cc1 [Compound 4.47, N-methyl-N′-[[4-[5-(trifluoromethyl)-1,2,4-oxadiazol-3-yl]phenyl]methyl] oxamide]
≥ 80%: pest or weed control at 200 ppm [1] | inhibition at 20 ppm [2] | pest or weed control at 200 ppm (Phakopsora pachyrhizi) | pest or weed control at 200 ppm [3]

CCN(CC)C(=O)C(=O)NCc1ccc(-c2noc(C(F)(F)F)n2)cc1 [Compound 4.52, N′,N′-diethyl-N-[[4-[5-(trifluoromethyl)-1,2,4-oxadiazol-3-yl]phenyl]methyl] oxamide]
≥ 80%: pest or weed control at 200 ppm [1] | inhibition at 20 ppm [2] | pest or weed control at 200 ppm (Phakopsora pachyrhizi) | pest or weed control at 200 ppm [3]

CCN(C)C(=O)C(=O)NCc1ccc(-c2noc(C(F)(F)F)n2)cc1 [Compound 4.54, N′-ethyl-N′-methyl-N-[[4-[5-(trifluoromethyl)-1,2,4-oxadiazol-3-yl]phenyl]methyl] oxamide]
≥ 80%: pest or weed control at 200 ppm [1] | inhibition at 20 ppm [2] | pest or weed control at 200 ppm (Phakopsora pachyrhizi) | pest or weed control at 200 ppm [3]
